Results: ChEMBL document CHEMBL1142749, “P2-P3 conformationally constrained ketoamide-based inhibitors of cathepsin K” (Bioorg Med Chem Lett, 2005)
Values after ≈ are worked out from the molar mass of the structure shown. One block for each compound: values may come before it.

Columns and labels:
[1] = Terminal half-life dosed as a solution in male Han Wistar rat administered i.v.; assay type: ADME, organism-based; settings: in vivo, iv; for half-life: male, Han Wistar
[2] = target: T1, Cathepsin K (Homo sapiens, UniProt P43235); assay: Inhibition of 10 µM Cbz-Phe-Arg-AMC binding to human cathepsin K in fluorescence assay with 100 mM NaOAc
T1 sequence (P43235 whole entry): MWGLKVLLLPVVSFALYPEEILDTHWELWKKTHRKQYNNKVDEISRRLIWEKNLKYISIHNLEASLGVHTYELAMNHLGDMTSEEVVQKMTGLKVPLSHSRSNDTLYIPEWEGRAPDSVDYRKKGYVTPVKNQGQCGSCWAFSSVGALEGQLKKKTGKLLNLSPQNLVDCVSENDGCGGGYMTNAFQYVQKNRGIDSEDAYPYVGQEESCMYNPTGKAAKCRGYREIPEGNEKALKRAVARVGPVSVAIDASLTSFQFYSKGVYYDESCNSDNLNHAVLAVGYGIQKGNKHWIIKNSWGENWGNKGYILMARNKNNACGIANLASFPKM

[3] = target: Procathepsin L (Homo sapiens, UniProt P07711); assay: Inhibition of 5 µM Cbz-Phe-Arg-AMC bindign to human cathepsin L activity in fluorescence assay with 100 mM NaOAc
[4] = The total clearance after i.v. administration; assay type: ADME, organism-based; settings: rat, in vivo, iv
[5] = target: Cathepsin B (Homo sapiens, UniProt P07858); assay: Inhibition of 10 µM Cbz-Phe-Arg-AMC binding to human cathepsin B activity in fluorescence assay with 100 mM NaOAc
[6] = target: T2, Cathepsin L2 (Homo sapiens, UniProt O60911); assay: Inhibition of 2 µM Cbz-Phe-Arg-AMC binding to human cathepsin V activity in fluorescence assay with 100 mM NaOAc
T2 sequence (O60911 whole entry): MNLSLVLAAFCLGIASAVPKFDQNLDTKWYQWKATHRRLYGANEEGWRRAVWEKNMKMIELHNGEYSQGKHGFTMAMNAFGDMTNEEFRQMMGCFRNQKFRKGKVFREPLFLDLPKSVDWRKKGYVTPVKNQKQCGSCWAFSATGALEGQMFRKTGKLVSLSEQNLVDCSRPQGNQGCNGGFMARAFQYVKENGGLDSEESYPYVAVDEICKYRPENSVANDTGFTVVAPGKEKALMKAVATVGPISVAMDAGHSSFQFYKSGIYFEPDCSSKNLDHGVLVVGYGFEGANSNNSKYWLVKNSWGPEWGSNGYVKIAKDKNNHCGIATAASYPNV

[7] = Oral bioavailability (i.v. administration); assay type: ADME, organism-based; settings: rat, in vivo
[8] = target: Cathepsin S (Homo sapiens, UniProt P25774); assay: Inhibition of 10 µM Cbz-Val-Val-Arg-AMC binding to human cathepsin S in fluorescence assay with 100 mM NaOAc
[9] = Steady-state volume of distribution of compound was determined after i.v. administration; assay type: ADME, organism-based; settings: rat, in vivo, iv; for Vd: read-out: VSS
[10] = The equilibrium solubility exhibited in a fasted state-simulated intestinal fluid at pH 6.8; assay type: ADME; settings: human

Cathepsin S, sequence (P25774 whole entry): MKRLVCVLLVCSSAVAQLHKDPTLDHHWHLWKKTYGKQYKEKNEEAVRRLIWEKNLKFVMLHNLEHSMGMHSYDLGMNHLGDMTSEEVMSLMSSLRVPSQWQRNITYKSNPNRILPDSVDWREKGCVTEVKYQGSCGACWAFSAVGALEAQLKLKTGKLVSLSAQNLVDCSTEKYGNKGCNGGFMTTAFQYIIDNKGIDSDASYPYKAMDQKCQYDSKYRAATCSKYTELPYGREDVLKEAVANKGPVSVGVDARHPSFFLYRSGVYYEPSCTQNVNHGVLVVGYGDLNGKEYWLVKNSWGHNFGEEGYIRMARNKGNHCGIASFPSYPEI
Procathepsin L, sequence (P07711 whole entry): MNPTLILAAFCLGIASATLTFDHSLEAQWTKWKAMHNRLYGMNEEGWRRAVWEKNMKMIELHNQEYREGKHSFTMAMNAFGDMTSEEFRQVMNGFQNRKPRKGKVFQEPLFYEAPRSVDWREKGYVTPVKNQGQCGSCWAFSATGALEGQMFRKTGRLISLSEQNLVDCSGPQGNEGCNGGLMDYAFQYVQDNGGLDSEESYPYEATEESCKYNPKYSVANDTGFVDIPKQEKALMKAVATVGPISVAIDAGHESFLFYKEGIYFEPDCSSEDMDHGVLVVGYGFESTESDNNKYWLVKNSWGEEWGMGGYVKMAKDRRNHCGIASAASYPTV

Compound: CCCC[C@H](NC(=O)O[C@H](Cc1nnc(-c2ccc(F)cc2)o1)C(C)(C)C)C(=O)C(=O)N[C@H](C)c1ccccc1
IC50 [3]: 33 µM
IC50 [5]: 9.8 µM
IC50 [6]: 34 µM
IC50 [8]: 0.53 µM

Compound: CCCC[C@H](NC(=O)O[C@H](Cn1cnc(-c2ccc(C(F)(F)F)cc2)c1)C(C)(C)C)C(=O)C(=O)Nc1nccs1
half-life [1]: 4.67 h
IC50 [3]: 1000 µM
clearance [4]: 15 mL/min/kg
IC50 [5]: 870 µM
IC50 [6]: 36 µM
bioavailability [7]: 43%
IC50 [8]: 19 µM
Vd [9]: 1.8 L/kg
solubility thermodynamic ([10]; read-out: FS-SIF): 48 µg/mL (≈ 82.8 µM)

Compound: CCCC[C@H](NC(=O)O[C@H](Cn1cnc(-c2ccc(C(F)(F)F)cc2)c1)C(C)(C)C)C(=O)C(=O)Nc1ccn[nH]1
half-life [1]: 7.67 h
IC50 [3]: 10 µM
clearance [4]: 15 mL/min/kg
IC50 [5]: 27 µM
IC50 [6]: 0.13 µM
bioavailability [7]: 55%
IC50 [8]: 0.16 µM
Vd [9]: 2.4 L/kg
solubility thermodynamic ([10]; read-out: FS-SIF): 130 µg/mL (≈ 231 µM)

Compound: CCCC[C@H](NC(=O)O[C@H](Cc1nnc(-c2ccc(F)cc2)o1)C(C)(C)C)C(=O)C(=O)NCc1cccnc1
half-life [1]: 3.83 h
IC50 [3]: 130 µM
clearance [4]: 11 mL/min/kg
IC50 [5]: 18 µM
IC50 [6]: 14 µM
bioavailability [7]: 46%
IC50 [8]: 2.7 µM
Vd [9]: 1.4 L/kg
solubility thermodynamic ([10]; read-out: FS-SIF): 490 µg/mL (≈ 908 µM)

Compound: CCCC[C@H](NC(=O)O[C@H](Cc1nnc(-c2ccc(F)cc2)o1)C(C)(C)C)C(=O)C(=O)Nc1ccn[nH]1
half-life [1]: 2.5 h
IC50 [2]: 0.0049 µM
IC50 [3]: 3800 µM
clearance [4]: 33 mL/min/kg
IC50 [5]: 3500 µM
IC50 [6]: 230 µM
bioavailability [7]: 88%
IC50 [8]: 110 µM
Vd [9]: 3.6 L/kg
solubility thermodynamic ([10]; read-out: FS-SIF): 58 µg/mL (≈ 113 µM)

Compound: CCCC[C@H](NC(=O)O[C@H](Cn1ccc(-c2ccc(C(F)(F)F)cc2)n1)C(C)(C)C)C(=O)C(=O)Nc1ccccn1
half-life [1]: 3.5 h
IC50 [2]: 0.0081 µM
IC50 [3]: 240 µM
clearance [4]: 41 mL/min/kg
IC50 [5]: 107 µM
IC50 [6]: 4.5 µM
bioavailability [7]: 34%
IC50 [8]: 3.7 µM
Vd [9]: 1.8 L/kg
solubility thermodynamic ([10]; read-out: FS-SIF): 380 µg/mL (≈ 662 µM)

Compound: CCCC[C@H](NC(=O)O[C@H](CN1CCN(c2ccc(C(F)(F)F)cc2)C1=O)C(C)(C)C)C(=O)C(=O)Nc1ccn[nH]1
half-life [1]: 5.67 h
IC50 [3]: 37 µM
clearance [4]: 55 mL/min/kg
IC50 [5]: 60 µM
IC50 [6]: 1.7 µM
bioavailability [7]: 27%
IC50 [8]: 0.54 µM
Vd [9]: 5 L/kg
solubility thermodynamic ([10]; read-out: FS-SIF): 43 µg/mL (≈ 74.1 µM)

Compound: CCCC[C@H](NC(=O)O[C@H](Cc1nnc(-c2ccc(C(F)(F)F)cc2)o1)C(C)(C)C)C(=O)C(=O)NN1CCOC1=O
half-life [1]: 6.83 h
IC50 [3]: 160 µM
clearance [4]: 11 mL/min/kg
IC50 [5]: 5.2 µM
IC50 [6]: 7.1 µM
bioavailability [7]: 79%
IC50 [8]: 1.2 µM
Vd [9]: 3.1 L/kg
solubility thermodynamic ([10]; read-out: FS-SIF): 170 µg/mL (≈ 291 µM)

Compound: CCCC[C@H](NC(=O)OC(Cc1nnc(-c2ccc(F)cc2)o1)C(C)(C)C)C(=O)C(=O)N[C@H]1CCCNC1=O (stereo partly specified)
half-life [1]: 2.33 h
IC50 [2]: 0.00065 µM
IC50 [3]: 15 µM
clearance [4]: 35 mL/min/kg
IC50 [5]: 6.2 µM
IC50 [6]: 1.3 µM
bioavailability [7]: 17%
IC50 [8]: 0.81 µM
Vd [9]: 1.4 L/kg
solubility thermodynamic ([10]; read-out: FS-SIF): 620 µg/mL (≈ 1140 µM)

Continued by falling IC50 [3], values first:

half-life [1]: 6.67 h
IC50 [2]: 0.0058 µM
IC50 [3]: 1000 µM
clearance [4]: 3.2 mL/min/kg
IC50 [5]: 870 µM
IC50 [6]: 36 µM
bioavailability [7]: 40%
IC50 [8]: 19 µM
Vd [9]: 1.7 L/kg
solubility thermodynamic [10]: 180 µg/mL (≈ 312 µM)
Compound: CCCC[C@H](NC(=O)O[C@H](Cn1ccc(-c2ccc(C(F)(F)F)cc2)n1)C(C)(C)C)C(=O)C(=O)NCc1ccno1

IC50 [3]: 190 µM
IC50 [5]: 32 µM
IC50 [6]: 5 µM
IC50 [8]: 1.6 µM
Compound: CCCC[C@H](NC(=O)O[C@H](Cc1nnc(-c2ccc(C(F)(F)F)cc2)o1)C(C)(C)C)C(=O)C(=O)N[C@H](C)c1ccccc1

half-life [1]: 8.83 h
IC50 [3]: 69 µM
clearance [4]: 11 mL/min/kg
IC50 [5]: 45 µM
IC50 [6]: 1.2 µM
bioavailability [7]: 50%
IC50 [8]: 0.52 µM
Vd [9]: 1.9 L/kg
solubility thermodynamic ([10]; read-out: FS-SIF): 61 µg/mL (≈ 108 µM)
Compound: CCCC[C@H](NC(=O)O[C@H](Cc1nnc(-c2ccc(C(F)(F)F)cc2)o1)C(C)(C)C)C(=O)C(=O)Nc1ccn[nH]1

half-life [1]: 5.67 h
IC50 [2]: 0.032 µM
IC50 [3]: 36 µM
clearance [4]: 9.1 mL/min/kg
IC50 [5]: 10 µM
IC50 [6]: 0.43 µM
bioavailability [7]: 45%
IC50 [8]: 0.078 µM
Vd [9]: 2.1 L/kg
solubility thermodynamic ([10]; read-out: FS-SIF): 97 µg/mL (≈ 172 µM)
Compound: CCCC[C@H](NC(=O)O[C@H](Cn1cc(-c2ccc(C(F)(F)F)cc2)cn1)C(C)(C)C)C(=O)C(=O)Nc1ccn[nH]1

IC50 [2]: 0.0015 µM
IC50 [3]: 17 µM
IC50 [5]: 56 µM
IC50 [6]: 2.8 µM
IC50 [8]: 0.72 µM
Compound: CCCC[C@H](NC(=O)O[C@H](Cc1nnc(-c2ccccc2)o1)C(C)(C)CC)C(=O)C(=O)N[C@H](C)c1ccccc1

IC50 [2]: 0.00083 µM
IC50 [3]: 17 µM
IC50 [5]: 31 µM
IC50 [6]: 5.6 µM
IC50 [8]: 3.7 µM
Compound: CCCC[C@H](NC(=O)O[C@H](Cc1nnc(-c2ccccc2)o1)C(C)C)C(=O)C(=O)N[C@H](C)c1ccccc1

IC50 [3]: 10 µM
IC50 [5]: 12 µM
IC50 [6]: 1.6 µM
IC50 [8]: 0.75 µM
Compound: CCCC[C@H](NC(=O)O[C@H](Cc1nnc(-c2ccccc2)o1)C(C)(C)C)C(=O)C(=O)N[C@H](C)c1ccccc1

T1/2 [1]: 1.52 h
IC50 [2]: 0.072 µM
IC50 [3]: 8.7 µM
CL [4]: 0.11 mL/min/kg
IC50 [5]: 20 µM
IC50 [6]: 0.17 µM
bioavailability [7]: 9.6%
IC50 [8]: 0.21 µM
VSS [9]: 0.32 L/kg
solubility thermodynamic ([10]; read-out: FS-SIF): 110 µg/mL (≈ 196 µM)
Compound: CCCC[C@H](NC(=O)O[C@H](Cn1ccc(-c2ccc(C(F)(F)F)cc2)n1)C(C)(C)C)C(=O)C(=O)Nc1ccn[nH]1
